Source: PMC2442905 (British Journal of Pharmacology, 2008)
Read-outs that look alike come from different tables or passages of the source. One block for each molecule: values may come before it.

How the values were obtained:
[1] = Drug concentrations in plasma of guinea-pigs; assay type: in vivo; settings: anaesthetized guinea-pig
[2] = molecular target: T1, hERG potassium channels stably expressed in CHO-K1 cells (Homo sapiens, UniProt Q12809); settings: for hERG inhibition (in words): group C drugs: at the highest concentration permitted by solubility
[3] = system: anaesthetized guinea-pigs (QTc interval of the ECG); assay: Anaesthetized guinea-pig QT; assay type: in vivo; settings: for increase (change) of baseline-corrected QTc over vehicle / mean baseline-corrected QTc: highest dose level; for increase (change) of baseline-corrected QTc over vehicle / mean baseline-corrected QTc / effect on QT/QTc interval in the guinea-pig model (in words): i.v. infusion over 10 min; for QTc increase of 5% over vehicle (risk signal): low, medium and high doses
plasma proteins = settings: human; cited from earlier work
[4] = molecular target: T1, hERG potassium channels stably expressed in CHO-K1 cells; assay: cell-based; settings: 25 °C, 400-ms pulse protocol
[5] = system: anaesthetized guinea-pigs; assay: Heart rate and mean blood pressure recordings in anaesthetized guinea-pigs; assay type: in vivo, guinea-pig; settings: limited the maximum dose to 3 mg kg^−1
[6] = read-out: Human plasma Cmax; single 400 mg dose in humans; cited from earlier work

T1 sequence (Q12809 whole entry, the tested form may be a part): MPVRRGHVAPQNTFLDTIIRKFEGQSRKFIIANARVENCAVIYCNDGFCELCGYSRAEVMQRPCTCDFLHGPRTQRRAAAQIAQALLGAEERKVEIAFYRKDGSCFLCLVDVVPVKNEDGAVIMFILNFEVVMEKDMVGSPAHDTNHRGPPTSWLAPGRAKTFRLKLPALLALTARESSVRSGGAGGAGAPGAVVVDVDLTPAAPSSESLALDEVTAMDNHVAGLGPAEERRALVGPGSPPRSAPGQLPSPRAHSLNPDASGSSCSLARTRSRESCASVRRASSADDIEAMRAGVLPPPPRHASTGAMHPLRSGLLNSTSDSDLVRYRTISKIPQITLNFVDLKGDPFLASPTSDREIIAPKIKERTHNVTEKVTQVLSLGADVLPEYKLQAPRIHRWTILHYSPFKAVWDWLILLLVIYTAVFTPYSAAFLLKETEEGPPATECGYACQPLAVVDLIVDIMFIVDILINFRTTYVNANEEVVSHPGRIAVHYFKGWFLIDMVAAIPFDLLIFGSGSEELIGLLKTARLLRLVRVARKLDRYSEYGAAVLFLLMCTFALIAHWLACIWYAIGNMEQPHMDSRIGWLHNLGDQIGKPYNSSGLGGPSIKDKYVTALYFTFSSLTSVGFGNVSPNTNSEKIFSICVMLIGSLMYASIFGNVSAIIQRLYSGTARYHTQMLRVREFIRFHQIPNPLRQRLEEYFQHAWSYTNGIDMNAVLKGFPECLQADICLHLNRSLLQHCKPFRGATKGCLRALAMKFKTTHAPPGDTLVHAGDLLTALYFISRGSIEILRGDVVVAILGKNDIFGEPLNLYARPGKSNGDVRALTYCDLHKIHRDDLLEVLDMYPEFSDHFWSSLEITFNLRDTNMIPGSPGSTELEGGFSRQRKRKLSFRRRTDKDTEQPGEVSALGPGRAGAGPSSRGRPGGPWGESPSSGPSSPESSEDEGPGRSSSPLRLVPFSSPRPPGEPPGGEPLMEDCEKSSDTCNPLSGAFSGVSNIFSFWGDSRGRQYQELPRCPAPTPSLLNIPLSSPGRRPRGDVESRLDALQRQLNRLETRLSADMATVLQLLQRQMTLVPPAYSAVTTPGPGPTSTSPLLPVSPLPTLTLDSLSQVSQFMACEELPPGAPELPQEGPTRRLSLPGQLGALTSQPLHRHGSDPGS

Peak plasma level ([1]; 0.1 mg kg^−1 i.v. over 10 min): 0.037±0.023 (4) μm
Peak plasma level ([1]; 0.3 mg kg^−1 i.v. over 10 min): 0.129±0.032 (4) μm
Peak plasma level ([1]; 1 mg kg^−1 i.v. over 10 min): 0.496±0.085 (5) μm
Structure (SMILES): COc1cc(N)c(Cl)cc1C(=O)NC1CCN(CCCOc2ccc(F)cc2)CC1OC (stereo not shown) [Cisapride]

Peak plasma level ([1]; 0.1 mg kg^−1 i.v. over 10 min): 1.1±0.2 (4) μm
Peak plasma level ([1]; 0.3 mg kg^−1 i.v. over 10 min): 1.2±0.1 (2) μm
Peak plasma level ([1]; 1 mg kg^−1 i.v. over 10 min): 4.0±2.2 (2) μm
Structure (SMILES): O=C1Cc2cc(CCN3CCN(c4nsc5ccccc45)CC3)c(Cl)cc2N1 [Ziprasidone]
Free safety margin (hERG IC50/ free Cmax) ([2]; human, pH 7.4): 286.45
Total safety margin (hERG IC50/ total Cmax) ([2]; human, pH 7.4): 0.573

Peak plasma level ([1]; 3 mg kg^−1 i.v. over 10 min): 4.8±0.5 (5) μm
Peak plasma level ([1]; 10 mg kg^−1 i.v. over 10 min): 14.6±1.4 (4) μm
Peak plasma level ([1]; 20 mg kg^−1 i.v. over 10 min): 30.3±2.5 (5) μm
Structure (SMILES): CC1(C)S[C@@H]2[C@H](NC(=O)[C@H](N)c3ccc(O)cc3)C(=O)N2[C@H]1C(=O)O [Amoxicillin]

Peak plasma level ([1]; 3 mg kg^−1 i.v. over 10 min): 23.5±4.2 (3) μm
Peak plasma level ([1]; 10 mg kg^−1 i.v. over 10 min): 80.4±9.1 (5) μm
Peak plasma level ([1]; 30 mg kg^−1 i.v. over 10 min): 159.4±22.4 (4) μm
Structure (SMILES): C[C@@H]1CN(c2c(F)c(N)c3c(=O)c(C(=O)O)cn(C4CC4)c3c2F)C[C@H](C)N1 [Sparfloxacin]
Free safety margin (hERG IC50/ free Cmax) ([2]; human, pH 7.4): 3.757
Total safety margin (hERG IC50/ total Cmax) ([2]; human, pH 7.4): 2.477
IC50 [4]: 24 µM
increase (change) of baseline-corrected QTc over vehicle [3]: 19.6%
mean baseline-corrected QTc [3]: 20.0%

Peak plasma level ([1]; 1 mg kg^−1 i.v. over 10 min): 2.08±0.28 (4) μm
Peak plasma level ([1]; 5 mg kg^−1 i.v. over 10 min): 30.6±7.2 (4) μm
Peak plasma level ([1]; 10 mg kg^−1 i.v. over 10 min): 80.5±4.0 (5) μm
Structure (SMILES): COc1c(N2C[C@@H]3CCCN[C@@H]3C2)c(F)cc2c(=O)c(C(=O)O)cn(C3CC3)c12 [Moxifloxacin]
Cmax [6]: ~7 µM
increase (change) of baseline-corrected QTc over vehicle [3]: 16.8%
mean baseline-corrected QTc [3]: 18.3%
effect on QT/QTc interval in the guinea-pig model (in words) [3]: dose-dependent QTc prolongation

The remaining lines, values behind:

Structure (SMILES): C[C@H](CS)C(=O)N1CCC[C@H]1C(=O)O [Captopril]
Peak plasma level ([1]; 3 mg kg^−1 i.v. over 10 min): 57.8±1.6 (2) μm
Peak plasma level ([1]; 10 mg kg^−1 i.v. over 10 min): 142±15 (2) μm
Peak plasma level ([1]; 30 mg kg^−1 i.v. over 10 min): 313±112 (2) μm
hERG inhibition (in words) [2]: no hERG inhibition was observed
increase (change) of baseline-corrected QTc over vehicle [3]: −7.3%
mean baseline-corrected QTc [3]: −6.0%
effect on QT/QTc interval in the guinea-pig model (in words) [3]: QTc actually dropped below vehicle
QTc increase of 5% over vehicle (risk signal) [3]: did not reach the 5% increase of QTc

Structure (SMILES): CC(C)NCC(O)c1ccc(NS(C)(=O)=O)cc1 (racemic) [D,L-Sotalol]
Peak plasma level ([1]; 1 mg kg^−1 i.v. over 10 min): 18.2±1.5 (5) μm
Peak plasma level ([1]; 3 mg kg^−1 i.v. over 10 min): 41.3±4.8 (4) μm
Peak plasma level ([1]; 10 mg kg^−1 i.v. over 10 min): 145.9±16.6 (5) μm

Structure (SMILES): CC(C)NCC(O)COc1cccc2ccccc12 (stereo not shown) [Propranolol]
Peak plasma level ([1]; 0.3 mg kg^−1 i.v. over 10 min): 0.50±0.03 (3) μm
Peak plasma level ([1]; 1 mg kg^−1 i.v. over 10 min): 1.84±0.41 (3) μm
Peak plasma level ([1]; 3 mg kg^−1 i.v. over 10 min): 4.65±0.40 (5) μm
QTc increase of 5% over vehicle (risk signal) [3]: did not reach the 5% increase of QTc
Protein binding (plasma proteins): 85%

Structure (SMILES): CC/C(=C(\c1ccccc1)c1ccc(OCCN(C)C)cc1)c1ccccc1 [Tamoxifen]
Peak plasma level ([1]; 3 mg kg^−1 i.v. over 10 min): 3.8±0.8 (4) μm
Peak plasma level ([1]; 10 mg kg^−1 i.v. over 10 min): 10.5±2.1 (5) μm
Peak plasma level ([1]; 30 mg kg^−1 i.v. over 10 min): 60.0±20.0 (5) μm
mean baseline-corrected QTc [3]: 8.4%

Structure (SMILES): O=C(CCCN1CC=C(n2c(=O)[nH]c3ccccc32)CC1)c1ccc(F)cc1 [Droperidol]
Peak plasma level ([1]; 0.03 mg kg^−1 i.v. over 10 min): 0.55±0.07 (3) μm
Peak plasma level ([1]; 0.1 mg kg^−1 i.v. over 10 min): 0.62±0.05 (5) μm
Peak plasma level ([1]; 0.3 mg kg^−1 i.v. over 10 min): 1.21±0.34 (5) μm

Structure (SMILES): C=C[C@H]1C[N@@]2CC[C@H]1C[C@@H]2[C@@H](O)c1ccnc2ccc(OC)cc12 [Quinidine]
Peak plasma level ([1]; 3 mg kg^−1 i.v. over 10 min): 6.2±0.08 (3) μm
Peak plasma level ([1]; 10 mg kg^−1 i.v. over 10 min): 27.8±8.0 (5) μm

Structure (SMILES): O=C(CCCN1CCC(O)(c2ccc(Cl)cc2)CC1)c1ccc(F)cc1 [Haloperidol]
Free safety margin (hERG IC50/ free Cmax) ([2]; human, pH 7.4): 1.4
Total safety margin (hERG IC50/ total Cmax) ([2]; human, pH 7.4): 0.1
Protein binding (plasma proteins): 90%

Structure (SMILES): CC(C)(C)c1ccc(C(O)CCCN2CCC(C(O)(c3ccccc3)c3ccccc3)CC2)cc1 (stereo not shown) [Terfenadine]
haemodynamic effects (in words) [5]: marked bradycardia and resultant hypotension

Structure (SMILES): CC(=O)Oc1ccccc1C(=O)O [Aspirin]
Peak plasma level ([1]; 1 mg kg^−1 i.v. over 10 min): 31.1±2.3 (5) μm
Peak plasma level ([1]; 3 mg kg^−1 i.v. over 10 min): 74.6±2.1 (5) μm
Peak plasma level ([1]; 10 mg kg^−1 i.v. over 10 min): 468±78 (4) μm
hERG inhibition (in words) [2]: no hERG inhibition was observed
Free safety margin (hERG IC50/ free Cmax) ([2]; hERG IC50 divided by human free plasma Cmax): >4512
Free safety margin (hERG IC50/ free Cmax) ([2]; hERG IC50 divided by human free plasma Cmax, listed as aspirin): above 300
IC50 [4]: > 100000 µM
QTc increase of 5% over vehicle (risk signal) [3]: did not reach the 5% increase of QTc

Structure (SMILES): COc1ccc(CCN(C)CCCC(C#N)(c2ccc(OC)c(OC)c2)C(C)C)cc1OC (stereo not shown) [Verapamil]
QTc increase of 5% over vehicle (risk signal) [3]: did not reach the 5% increase of QTc
